What is called IC50 is the concentration needed to halve the response being measured. High values mean a need for much substance, low ones inhibition by little substance.

The source of these data is patent US11345699B2, “Apoptosis signal-regulating kinase 1 inhibitors and methods of use thereof” (Enanta Pharmaceuticals, Inc., priority 2018, dated 2022).

For this assay, the target named is ASK1 (Homo sapiens (Human), UniProt Q99683). Kind of assay: HTRF KinEASE Assay (TR-FRET), inhibition of ASK1. The class given is biochemical. As to conditions: ASK1 kinase, 100 μM ATP, 1 μM STK3 peptide substrate, compound 0 to 10 μM. The method, then: Assay HTRF® KinEASE™ Assay
ASK1, sequence (Q99683 whole entry): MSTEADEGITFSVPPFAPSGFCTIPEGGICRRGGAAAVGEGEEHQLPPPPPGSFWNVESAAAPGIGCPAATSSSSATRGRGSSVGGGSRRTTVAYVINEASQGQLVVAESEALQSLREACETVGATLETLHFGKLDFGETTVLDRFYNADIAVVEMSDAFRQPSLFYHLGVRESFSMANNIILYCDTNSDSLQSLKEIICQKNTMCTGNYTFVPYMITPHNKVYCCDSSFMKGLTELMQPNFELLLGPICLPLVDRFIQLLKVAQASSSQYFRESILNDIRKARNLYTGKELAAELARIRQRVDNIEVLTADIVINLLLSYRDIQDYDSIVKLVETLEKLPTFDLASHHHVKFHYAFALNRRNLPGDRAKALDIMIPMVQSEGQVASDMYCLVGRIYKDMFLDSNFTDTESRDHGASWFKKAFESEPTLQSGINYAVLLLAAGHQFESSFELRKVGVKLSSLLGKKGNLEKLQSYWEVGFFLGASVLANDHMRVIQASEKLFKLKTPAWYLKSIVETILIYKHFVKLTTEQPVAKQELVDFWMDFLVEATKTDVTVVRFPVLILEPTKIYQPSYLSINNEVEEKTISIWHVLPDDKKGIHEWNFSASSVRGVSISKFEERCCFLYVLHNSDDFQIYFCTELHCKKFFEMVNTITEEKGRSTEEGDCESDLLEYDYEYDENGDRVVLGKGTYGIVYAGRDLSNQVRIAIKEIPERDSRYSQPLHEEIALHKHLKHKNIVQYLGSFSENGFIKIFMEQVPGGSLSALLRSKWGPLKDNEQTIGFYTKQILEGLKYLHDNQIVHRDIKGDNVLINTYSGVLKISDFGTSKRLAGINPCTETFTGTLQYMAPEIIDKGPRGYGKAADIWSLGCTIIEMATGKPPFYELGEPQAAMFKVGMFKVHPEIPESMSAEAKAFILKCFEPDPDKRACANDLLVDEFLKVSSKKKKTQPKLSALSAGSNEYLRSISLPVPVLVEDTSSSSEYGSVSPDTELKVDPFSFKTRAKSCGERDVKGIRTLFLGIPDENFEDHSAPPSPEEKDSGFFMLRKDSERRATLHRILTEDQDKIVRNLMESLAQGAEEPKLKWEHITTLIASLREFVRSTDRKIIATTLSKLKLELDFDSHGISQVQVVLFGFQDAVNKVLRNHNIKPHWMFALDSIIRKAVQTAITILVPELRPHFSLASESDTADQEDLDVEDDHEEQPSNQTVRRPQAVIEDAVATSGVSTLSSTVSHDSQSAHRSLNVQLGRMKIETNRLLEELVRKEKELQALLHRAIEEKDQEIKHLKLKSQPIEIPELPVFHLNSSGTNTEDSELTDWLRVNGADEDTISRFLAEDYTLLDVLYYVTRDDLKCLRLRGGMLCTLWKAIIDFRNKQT
ASK1 was purchased from Thermofisher (Catalogue #PV4011), ATP was purchased from Sigma (Catalogue #A7699), HTRF® KinEASE™ Assay System was obtained from Cisbio (Bedford, Mass.). ½ Area plate was purchased from Perkin Elmer (Catalogue ##6005560). HTRF® KinEASE™-STK is a generic method for measuring serine/threonine kinase activities using a time-resolved fluorescence resonance energy transfer (TR-FRET) immunoassay. The IC50 value for each compound was determined in the presence of compound (various concentration from 0 to 10 μM) and a fixed amount of ATP and peptide substrates. The test compound, 1 μM STK3 peptide substrate, and […] of ASK1 kinase are incubated with kinase reaction buffer containing 50 mM HEPES Ph 7.5, 0.01% BRIJ-35, 10 mM MgCl2, and 1 mM EGTA for 30 minutes. 100 μM ATP is added to start kinase reaction and incubated for 3 hours. The STK3-antibody labeled with Eu^3+-Cryptate and 125 nM streptavidin-XL665 are mixed in a single addition with stop reagents provided by the Cisbio kit used to stop the kinase reaction. Fluorescence is detected using an Envision Multilabeled 2014 reader from PerkinElmer. The Fluorescence is measured at 615 nm (Cryptate) and 665 nm (XL665) and a ratio of 665 nm/615 nm is calculated for each well. The resulting TR-FRET is proportional to the phosphorylation level. Staurosporine was used as the positive control. IC50 was determined by Xlfit 5.3.
By using above method, the inhibition of ASK1 was evaluated for the compounds of Formula (I). Example numbers correspond to those in Table 5.
(TR-FRET usually uses a lanthanide donor and a delayed reading to cut background.)

The compound `C[C@H](CO)n1nnnc1-c1cccc(NC(=O)c2cc3c(cc2F)CCN(C(=O)N2CCCCC2)C3)n1` [Example 116] gave an IC50 of 1.25 to 10 nM. With `C[C@H](CO)n1nnnc1-c1cccc(NC(=O)c2cc3c(cc2F)CCN(S(=O)(=O)NC2CC2)C3)n1` [Example 117] the figure was 10 to 100 nM; with `CCNS(=O)(=O)N1CCc2cc(F)c(C(=O)Nc3cccc(-c4nnnn4[C@H](C)CO)n3)cc2C1` [Example 118], 1.25 to 10 nM; with `C[C@H](CO)n1nnnc1-c1cccc(NC(=O)c2cc3c(cc2F)CCN(S(=O)(=O)C2CC2)C3)n1` [Example 119], 10 to 100 nM. With `C[C@H](CO)n1nnnc1-c1cccc(NC(=O)c2cc3c(cc2F)CCN(C2CC2)C3)n1` [Example 120] the figure was 10 to 100 nM; with `C[C@H](CO)n1nnnc1-c1cccc(NC(=O)c2cc3c(cc2F)CCN(Cc2ccc(F)cc2)C3)n1` [Example 121], 10 to 100 nM. With `C[C@H](CO)n1nnnc1-c1cccc(NC(=O)c2cc3c(cc2F)CCN(c2ccccn2)C3)n1` [Example 122] the figure was 1.25 to 10 nM; with `C[C@H](CO)n1nnnc1-c1cccc(NC(=O)c2cc3c(cc2F)CCN(c2ncccn2)C3)n1` [Example 123], 1.25 to 10 nM; with `COCCC(=O)N1CCc2cc(OC)c(C(=O)Nc3cccc(-c4nnnn4[C@H](C)CO)n3)cc2C1` [Example 124], under 1.25 nM.

`COCCC(=O)N1CCc2cc(OC)c(C(=O)Nc3cccc(-c4nncn4C(C)C)n3)cc2C1` [Example 125]: the IC50 was under 1.25 nM.

For the compound `COc1cc2c(cc1C(=O)Nc1cccc(-c3nncn3C(C)C)n1)CN(C(=O)C(C)(C)CO)CC2` [Example 126, 2-(3-hydroxy-2,2-dimethylpropanoyl)-N-(6-(4-isopropyl-4H-1,2,4-triazol-3-yl)pyridin-2-yl)-6-methoxy-1,2,3,4-tetrahydroisoquinoline-7-carboxamide], the IC50 was under 1.25 nM. With `COc1cc2c(cc1C(=O)Nc1cccc(-c3nncn3C(C)C)n1)CN(C(=O)C[C@H](C)O)CC2` [Example 127] the figure was under 1.25 nM; with `COc1cc2c(cc1C(=O)Nc1cccc(-c3nncn3C(C)C)n1)CN(C(=O)[C@@H](O)CC(C)C)CC2` [Example 128], under 1.25 nM; with `COc1cc2c(cc1C(=O)Nc1cccc(-c3nncn3C(C)C)n1)CN(C(=O)C(C)(C)O)CC2` [Example 129], under 1.25 nM.

With `COc1cc2c(cc1C(=O)Nc1cccc(-c3nnnn3[C@H](C)CO)n1)CN(C(=O)OCC(C)(C)O)CC2` [Example 130, 2-hydroxy-2-methylpropyl (R)-7-((6-(1-(1-hydroxypropan-2-yl)-1H-tetrazol-5-yl)pyridin-2-yl)carbamoyl)-6-methoxy-3,4-dihydroisoquinoline-2(1H)-carboxylate], the IC50 is under 1.25 nM. With `COc1cc2c(cc1C(=O)Nc1cccc(-c3nnnn3[C@H](C)CO)n1)CN(C(=O)N1CCOCC1)CC2` [Example 131], the IC50 is under 1.25 nM. The compound `COc1cc2c(cc1C(=O)Nc1cccc(-c3nnnn3[C@H](C)CO)n1)CN(CC(=O)N1CCCC1)CC2` [Example 132] displayed an IC50 of under 1.25 nM. With `C[C@H](CO)n1nnnc1-c1cccc(NC(=O)c2cc3c(cc2F)CCN(C(=O)c2ccccn2)C3)n1` [Example 133] the figure was 10 to 100 nM; with `C[C@H](CO)n1nnnc1-c1cccc(NC(=O)c2cc3c(cc2F)CCN(C(=O)NC2CC2)C3)n1` [Example 134], 1.25 to 10 nM.

For `C[C@H](CO)n1nnnc1-c1cccc(NC(=O)c2cc3c(cc2F)CCN(C(=O)N2CCC2)C3)n1` [Example 135], the IC50 was 1.25 to 10 nM.

`C[C@H](CO)n1nnnc1-c1cccc(NC(=O)c2cc3c(cc2F)CCN(S(=O)(=O)Nc2ccc(F)cc2)C3)n1` [Example 136] showed an IC50 of 10 to 100 nM. In the case of `C[C@H](CO)n1nnnc1-c1cccc(NC(=O)c2cc3c(cc2F)CCN(S(=O)(=O)c2ccc(F)cc2)C3)n1` [Example 137] it was 10 to 100 nM; in that of `CCN1CCc2cc(F)c(C(=O)Nc3cccc(-c4nnnn4[C@H](C)CO)n3)cc2C1` [Example 138], 100 to 1000 nM. In the case of `C[C@H](CO)n1nnnc1-c1cccc(NC(=O)c2cc3c(cn2)CCN(C(=O)N2CCOCC2)C3)n1` [Example 139] it was 1.25 to 10 nM. In the case of `C[C@H](CO)n1nnnc1-c1cccc(NC(=O)c2cc3c(cn2)CCN(C(=O)C(C)(C)O)C3)n1` [Example 140], the IC50 lay in the range of 1.25 to 10 nM. With `COc1cc2c(cc1C(=O)Nc1cccc(-c3nnnn3[C@H](C)CO)n1)CN(C(=O)OC[C@@H](O)C(F)(F)F)CC2` [Example 141] the figure was under 1.25 nM; with `COc1cc2c(cc1C(=O)Nc1cccc(-c3nnnn3[C@H](C)CO)n1)CN(C(=O)[C@@H]1CCOC1)CC2` [Example 142], under 1.25 nM; with `COc1cc2c(cc1C(=O)Nc1cccc(-c3nnnn3[C@H](C)CO)n1)CN(C(=O)OC1CCOC1)CC2` (stereo partly drawn) [Example 143], 1.25 to 10 nM.

`COc1cc2c(cc1C(=O)Nc1cccc(-c3nnnn3[C@H](C)CO)n1)CN(C(=O)N1CC[C@@H](O)C1)CC2` [Example 144, N-(6-(1-((R)-1-hydroxypropan-2-yl)-1H-tetrazol-5-yl)pyridin-2-yl)-2-((R)-3-hydroxypyrrolidine-1-carbonyl)-6-methoxy-1,2,3,4-tetrahydroisoquinoline-7-carboxamide] showed an IC50 of under 1.25 nM. With `CCOC(=O)N1CCc2cnc(C(=O)Nc3cccc(-c4nnnn4[C@H]4CCC[C@@H]4O)n3)cc2C1` [Example 145] the figure was 10 to 100 nM. Take `CCOC(=O)N1CCc2cnc(C(=O)Nc3cccc(-c4nnnn4[C@@H]4CCC[C@@H]4O)n3)cc2C1` [Example 146]: the IC50 was in the range of 10 to 100 nM. In the case of `CONC(=O)N1CCc2cc(OC)c(C(=O)Nc3cccc(-c4nnnn4[C@H](C)CO)n3)cc2C1` [Example 147] it was under 1.25 nM. With `COc1cc2c(cc1C(=O)Nc1cccc(-c3nncn3C(C)C)n1)CN(C(=O)CN1CCOC1=O)CC2` [Example 148], the concentration for half-maximal inhibition (IC50) is under 1.25 nM. `COc1cc2c(cc1C(=O)Nc1cccc(-c3nnnn3[C@H](C)CO)n1)CN(C(=O)CN1CCOC1=O)CC2` [Example 149]: the IC50 is under 1.25 nM. In the case of `COc1cc2c(cc1C(=O)Nc1cccc(-c3nnnn3[C@H](C)CO)n1)CN(c1cccnc1)CC2` [Example 150, (R)—N-(6-(1-(1-hydroxypropan-2-yl)-1H-tetrazol-5-yl)pyridin-2-yl)-6-methoxy-2-(pyridin-3-yl)-1,2,3,4-tetrahydroisoquinoline-7-carboxamide] it was under 1.25 nM; in that of `COc1cc2c(cc1C(=O)Nc1cccc(-c3nncn3C(C)C)n1)CN(c1cncnc1)CC2` [Example 151, N-(6-(4-isopropyl-4H-1,2,4-triazol-3-yl)pyridin-2-yl)-6-methoxy-2-(pyrimidin-5-yl)-1,2,3,4-tetrahydroisoquinoline-7-carboxamide], under 1.25 nM; in that of `COc1cc2c(cc1C(=O)Nc1cccc(-c3nnnn3[C@H](C)CO)n1)CN(c1ncc(F)cn1)CC2` [Example 152, (R)-2-(5-fluoropyrimidin-2-yl)-N-(6-(1-(1-hydroxypropan-2-yl)-1H-tetrazol-5-yl)pyridin-2-yl)-6-methoxy-1,2,3,4-tetrahydroisoquinoline-7-carboxamide], 1.25 to 10 nM. In the case of `COc1cc2c(cc1C(=O)Nc1cccc(-c3nnnn3[C@H](C)CO)n1)CN(c1ncns1)CC2` [Example 153] it was 1.25 to 10 nM; in that of `COc1cc2c(cc1C(=O)Nc1cccc(-c3nnnn3[C@H](C)CO)n1)CN(c1cnc(F)cn1)CC2` [Example 154, (R)-2-(5-fluoropyrazine-2-yl)-N-(6-(1-(1-hydroxypropan-2-yl)-1H-tetrazol-5-yl)pyridin-2-yl)-6-methoxy-1,2,3,4-tetrahydroisoquinoline-7-carboxamide], 1.25 to 10 nM.
